Several values for one entry are separate records, joined by “and”; a condition that tells them apart may be missing. Equal values may be shown once.

The values that follow come from PMC5764481, “Synthesis, characterization and in vitro antitrypanosomal activities of new carboxamides bearing quinoline moiety” (PLoS ONE, 2018).

The test system of one series is T. b. rhodesiense.
Test: not given
The conditions noted are these: cited from earlier work.
For the compound `NCCCC(N)(C(=O)O)C(F)F` (stereo not shown) [Eflornithine], the “effectiveness against T. b. rhodesiense” value is recorded as “ineffective”.

For a further series, the system named is people.
Test: not given
The conditions noted are these: cited from earlier work.
For `Nc1nc(N)nc(Nc2ccc([As]3SCC(CO)S3)cc2)n1` (stereo not shown) [melarsoprol], the “people who die from adverse effects related to treatment” value is given as 1–5%.

Test system in another series: not listed separately
Nature of the series: Determination of LD50 in mice. The conditions noted are these: mouse, in vivo, ip; male mice, intraperitoneal, observed 72 h. The protocol: Male mice were divided into various groups and test compounds were administered in various doses intraperitoneally. […] All behavioral changes and deaths during the observation periods were recorded. The percentage of death at each dose level was then calculated, converted to probits and the LD50 (μM/kg) values were calculated. To observe the health status of the mice, they were monitored 4 times a day. […] For the purpose of ameliorating the suffering of the dying mice, CO2 euthanasia was applied. All the dead mice were disposed in bio-safety containers in accordance with local standard protocols. The mortality rate in each group was calculated according to the formula: Mortalityrate(%)=(thenumberofdeadmice/thenumberofmiceinthegroup)×100.
What is called LD50 is the dose expected to kill half of the subjects tested. Lower therefore signals a more toxic substance. In turn, `Nc1nc(N)nc(Nc2ccc([As]3SCC(CO)S3)cc2)n1` (stereo not shown) [melarsoprol] yielded an LD50 at 72 h of 7.21 ± 0.28 µmol/kg.

The test system of the next series is T. b. gambiense strain. Nature of the series: In vitro antitrypanosomal activities (LILIT, Alamar Blue). It is filed as cell-based, Trypanosoma brucei gambiense. The conditions noted are these: Trypanosoma brucei, GAMBIENSE, 72 h. The protocol:
In vitro antitrypanosomal activities against T. b. gambiense strain was described by Otoguro et al. In brief, T. b. gambiense strain was cultured in IMDM with various supplements and 10% heat-inactivated FBS at 37°C, under 5.0% CO2/95% air according to the method of Baltz et al. Ninety five […] of the trypanosomes suspension (2.0–2.5104 trypanosomes/mL for strain GUTat 3.1) was seeded in a 96-well microplate, and […] of a test compound solution (dissolved in 5.0% dimethylsulfoxide) was added followed by incubation for 72 h (long incubation-low inoculation test: LILIT). Ten […] of the fluorescent dye Alamar Blue was added to each well. After incubation for 3–6 h, the resulting solution was read at 528/20 nm excitation wavelength and 590/35 nm emission wavelength by a FLx800 fluorescent plate reader (Bio-Tek Instrument, Inc. Vermont, USA). Data were transferred into a spreadsheet program (Excel). The IC50 values were determined using fluorescent plate reader software (KC-4, Bio-Tek). Successive subcultures were done in 24-well tissue culture plates under the same conditions.
In general terms: Alamar Blue is a resazurin reagent that responds to reducing activity.
For orientation: IC50 means the point on the concentration scale where inhibition reaches its midpoint. `Nc1nc(N)nc(Nc2ccc([As]3SCC(CO)S3)cc2)n1` (stereo not shown) [melarsoprol] showed an IC50 of 5 nM.

The same series, now with this note: Trypanosoma brucei; T. b. gambiense strain GUTat 3.1, 72 h incubation, Alamar Blue fluorescence; read-out: IC50.
Regarding `Cc1ccc(S(=O)(=O)N(C(=O)c2ccccc2)C(Cc2cc3ccccc3[nH]2)C(=O)Nc2cnc3ccccc3c2)cc1` (stereo not shown) [Compound 11c, 3-(1H-indol-2-yl)-2-[N-(4-methylbenzenesulfonyl)-1-phenylformamido]-N-(quinolin-3-yl)propanamide], the IC50 amounted to 106 ± 0.03 nM.

For `O=C(Nc1cnc2ccccc2c1)C(Cc1cc2ccccc2[nH]1)N(C(=O)c1ccccc1)S(=O)(=O)c1ccccc1` (stereo not shown) [Compound 11k, 2-[N-(benzenesulfonyl)-1-phenylformamido]-3-(1H-indol-2-yl)-N-(quinolin-3-yl)propanamide], the IC50 came out at 109 ± 0.08 nM.

Staying with this series, now noted: read-out: IC50.
For the compound “1-(4-Methylbenzenesulfonyl)-N-(quinolin-3-yl)pyrrolidine-2-carboxamide [Compound 11h]”, the IC50 was 5 nM and 6 nM. Still for that read-out and setting: under “1-(4-Nitrobenzenesulfonyl)-N-(quinolin-3-yl)pyrrolidine-2-carboxamide [Compound 11x]” stands 3 nM; under “1-(Benzenesulfonyl)-4-hydroxy-N-(quinolin-3-yl)pyrrolidine-2-carboxamide [Compound 11o]”, 3 nM. On the same count and under the same terms, the result for “1-(Benzenesulfonyl)-N-(quinolin-3-yl)pyrrolidine-2-carboxamide [Compound 11p]” reads 4 nM; that for “2-[N-(4-methylbenzenesulfonyl)-1-phenylformamido]-3-phenyl-N-(quinolin-3-yl)propanamide [Compound 11b]”, 114 ± 0.05 nM; that for “2-[N-(4-methylbenzenesulfonyl)-1-phenylformamido]-N-(quinolin-3-yl)acetamide [Compound 11a]”, 136 ± 0.03 nM. Regarding “2-[N-(4-nitrobenzenesulfonyl)-1-phenylformamido]-3-phenyl-N-(quinolin-3-yl)propanamide [Compound 11r]”, the IC50 turned out to be 108 ± 0.09 nM. As for “2-[N-(4-nitrobenzenesulfonyl)-1-phenylformamido]-N-(quinolin-3-yl)acetamide [Compound 11q]”, the IC50 worked out at 128 ± 0.09 nM.

Take “2-[N-(benzenesulfonyl)-1-phenylformamido]-3-methyl-N-(quinolin-3-yl)butanamide [Compound 11n]”: the IC50 stood at 1 nM.

Turning to “2-[N-(benzenesulfonyl)-1-phenylformamido]-3-methyl-N-(quinolin-3-yl)pentanamide [Compound 11m]”, the IC50 came to 125 ± 0.09 nM.

With “2-[N-(benzenesulfonyl)-1-phenylformamido]-3-phenyl-N-(quinolin-3-yl)propanamide [Compound 11j]”, the IC50 amounted to 116 ± 0.04 nM.

On to “2-[N-(benzenesulfonyl)-1-phenylformamido]-4-methyl-N-(quinolin-3-yl)pentanamide [Compound 11l]”, for which the IC50 was found to be 125 ± 0.1 nM. Still for that read-out and setting: under “2-[N-(benzenesulfonyl)-1-phenylformamido]-N-(quinolin-3-yl)acetamide [Compound 11i]” stands 140 ± 0.03 nM; under “3-Methyl-2-[N-(4-methylbenzenesulfonyl)-1-phenylformamido]-N-(quinolin-3-yl)butanamide [Compound 11f]”, 3 nM.

Turning to “3-Methyl-2-[N-(4-nitrobenzenesulfonyl)-1-phenylformamido]-N-(quinolin-3-yl)butanamide [Compound 11v]”, the IC50 came out at 1 nM. On to “3-Methyl-2-[N-(4-nitrobenzenesulfonyl)-1-phenylformamido]-N-(quinolin-3-yl)pentanamide [Compound 11u]”, for which the IC50 is 114 ± 0.03 nM. The same measure, in the same setting: the result for “4-Hydroxy-1-(4-methylbenzenesulfonyl)-N-(quinolin-3-yl)pyrrolidine-2-carboxamide [Compound 11g]” reads 2 nM. As for “4-Hydroxy-1-(4-nitrobenzenesulfonyl)-N-(quinolin-3-yl)pyrrolidine-2-carboxamide [Compound 11w]”, the IC50 amounted to 2 nM.

As for “4-Methyl-2-[N-(4-methylbenzenesulfonyl)-1-phenylformamido]-N-(quinolin-3-yl)pentanamide [Compound 11d]”, the IC50 amounted to 121 ± 0.05 nM.

For “4-Methyl-2-[N-(4-nitrobenzenesulfonyl)-1-phenylformamido]-N-(quinolin-3-yl)pentanamide [Compound 11t]”, the IC50 came out at 114 ± 0.09 nM.

Test system in the next series: not given
Test: not given
Conditions: not given
As a reminder, the melting point is the temperature of the solid-liquid transition. For the compound `Cc1ccc(S(=O)(=O)N(C(=O)c2ccccc2)C(Cc2cc3ccccc3[nH]2)C(=O)Nc2cnc3ccccc3c2)cc1` (stereo not shown) [Compound 11c, 3-(1H-indol-2-yl)-2-[N-(4-methylbenzenesulfonyl)-1-phenylformamido]-N-(quinolin-3-yl)propanamide], the melting point is 88.1 to 88.8 °C.

Regarding `O=C(Nc1cnc2ccccc2c1)C(Cc1cc2ccccc2[nH]1)N(C(=O)c1ccccc1)S(=O)(=O)c1ccccc1` (stereo not shown) [Compound 11k, 2-[N-(benzenesulfonyl)-1-phenylformamido]-3-(1H-indol-2-yl)-N-(quinolin-3-yl)propanamide], the melting point fell in the range of 73.5 to 73.8 °C.
